SMILES strings stand for the structures. Where two headings read alike, the source gives them in different places.

Test [1] relates to NCI-H1975 cells (EGFR T790M L858R). Nature of the test: EGFR-SOS cellular inhibition assay (CellTiter-Glo, 3D). Type of test: cell-based. Conditions: Homo sapiens. (In general: ATP-based viability assays read luminescence as a measure of living cells.)
Test [2] has as its system MIA PaCa-2 cells (K-Ras G12C). Kind of test: Ras-SOS cellular growth inhibition assay (CellTiter-Glo, 3D). The class given is cell-based. Conditions: Homo sapiens. The procedure, abridged: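 Growth read by CellTiter-Glo luminescence about 5 days after dosing with 3-fold dilutions (9 points), added one day post-seeding. Cells: MIA PaCa-2, 3D culture on ultra-low-attachment surface, medium DMEM/Ham's F12 plus 10% FCS and 2.5% horse serum; IC50 by four-parameter fit.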

A further test has as its target SOS1 (Homo sapiens (Human), UniProt Q07889). Nature of the test: Ras-SOS interaction assay (HTRF). Type of test: biochemical. (In general: In TR-FRET formats the signal depends on donor and acceptor labels being close together.)
[3] abbreviates: 120 h, NCI-H1975, 3D proliferation, about 5 days, read-out: Bio-Cell-Prolif-3D (H1975 IC50).
Setting [4] is: NCI-H1975, EGFR T790M L858R, read-out: IC50 in inhibiting growth of NCI-H1975 cell line.
Setting [5] is: MIA PaCa-2, 120 h, MIA PaCa-2, 3D proliferation, about 5 days, read-out: Bio-Cell-Prolif-3D (MiaPaca2 IC50).
The mark [6] stands for this setting: MIA PaCa-2, MIA PaCa-2, read-out: IC50 in inhibiting MIA PaCa-2 cell growth.
Setting [7] is: K-RasG13D utilized, read-out: IC50 inhibition of SOS.
The mark [8] stands for this setting: K-RasG13D, read-out: IC50 value against SOS1.

Sequence of SOS1 (Q07889 564-1049): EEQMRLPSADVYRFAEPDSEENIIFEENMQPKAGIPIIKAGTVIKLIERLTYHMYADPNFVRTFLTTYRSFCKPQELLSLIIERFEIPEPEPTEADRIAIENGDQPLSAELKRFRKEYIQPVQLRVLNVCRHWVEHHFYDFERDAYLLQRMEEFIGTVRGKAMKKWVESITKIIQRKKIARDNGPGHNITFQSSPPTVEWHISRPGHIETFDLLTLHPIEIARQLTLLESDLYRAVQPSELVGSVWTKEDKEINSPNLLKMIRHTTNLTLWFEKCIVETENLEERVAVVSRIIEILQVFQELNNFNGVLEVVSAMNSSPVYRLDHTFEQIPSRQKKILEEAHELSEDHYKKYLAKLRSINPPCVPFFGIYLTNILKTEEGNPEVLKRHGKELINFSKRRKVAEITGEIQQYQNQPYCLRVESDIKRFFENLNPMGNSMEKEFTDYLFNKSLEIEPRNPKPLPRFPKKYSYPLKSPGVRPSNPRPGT

For the molecule `Cc1nc(N[C@H](C)c2cccc(C(F)(F)F)c2F)c2cc(C3(C#N)CC3)c(N3CCN(C(C)C)CC3)nc2n1` [Compound 346, (R)-1-(4-((1-(2-fluoro-3-(trifluoromethyl)phenyl)ethyl)amino)-7-(4-isopropylpiperazin-1-yl)-2-methylpyrido[2,3-d]pyrimidin-6-yl)cyclopropane-1-carbonitrile], the IC50 (as a rule, the concentration that inhibits the measured activity by half) is at most 1000 nM in test [1] (setting [3]); under 500 nM in test [1] (setting [4]); at most 1000 nM in test [2] (setting [5]); under 500 nM in test [2] (setting [6]); under 100 nM on SOS1 (setting [7]); under 50 nM at SOS1 (setting [8]).
For the molecule `Cc1nc(N[C@H](C)c2cccc(C(F)(F)CO)c2F)c2cc(C3(C#N)CC3)c(N3CCN(C(C)C)CC3)nc2n1` [Compound 347, (R)-1-(4-((1-(3-(1,1-difluoro-2-hydroxyethyl)-2-fluorophenyl)ethyl)amino)-7-(4-isopropylpiperazin-1-yl)-2-methylpyrido[2,3-d]pyrimidin-6-yl)cyclopropane-1-carbonitrile], the IC50 in test [1] (setting [3]) is at most 1000 nM; in test [1] (setting [4]), under 500 nM; in test [2] (setting [5]) it was at most 1000 nM; in test [2] (setting [6]), under 500 nM; on SOS1 (setting [7]), under 100 nM; at SOS1 (setting [8]), under 50 nM.
Consider `COc1nc2nc(C)nc(N[C@H](C)c3cccc(C(F)(F)F)c3F)c2cc1N1CCN(C)CC1` [Compound 349, (R)-N-(1-(2-fluoro-3-(trifluoromethyl)phenyl)ethyl)-7-methoxy-2-methyl-6-(4-methylpiperazin-1-yl)pyrido[2,3-d]pyrimidin-4-amine], for which the IC50 is at most 1000 nM in test [1] (setting [3]); under 500 nM in test [1] (setting [4]); at most 1000 nM in test [2] (setting [5]); under 500 nM in test [2] (setting [6]); under 100 nM at SOS1 (setting [7]); under 50 nM on SOS1 (setting [8]).
Consider `CCN1CCN(c2cc3c(N[C@H](C)c4cccc(C(F)(F)F)c4C)nc(C)nc3nc2OC)CC1` [Compound 350, (R)-6-(4-ethylpiperazin-1-yl)-7-methoxy-2-methyl-N-(1-(2-methyl-3-(trifluoromethyl)phenyl)ethyl)pyrido [2,3-d]pyrimidin-4-amine], for which the IC50 was at most 1000 nM in test [1] (setting [3]); under 500 nM in test [1] (setting [4]); at most 1000 nM in test [2] (setting [5]); under 500 nM in test [2] (setting [6]); under 100 nM on SOS1 (setting [7]); under 50 nM at SOS1 (setting [8]).
In the case of `Cc1nc(N[C@H](C)c2cccc(C(F)F)c2F)c2cc(N3CCN(C(C)C)CC3)c(OCCN(C)C)nc2n1` [Compound 359, (R)-N-(1-(3-(difluoromethyl)-2-fluorophenyl)ethyl)-7-(2-(dimethylamino)ethoxy)-6-(4-isopropylpiperazin-1-yl)-2-methylpyrido[2,3-d] pyrimidin-4-amine], the IC50 is at most 1000 nM in test [1] (setting [3]); under 500 nM in test [1] (setting [4]); at most 1000 nM in test [2] (setting [5]); under 500 nM in test [2] (setting [6]); under 100 nM on SOS1 (setting [7]); under 50 nM on SOS1 (setting [8]).
Turning to `COCCOc1nc2nc(C)nc(N[C@H](C)c3cccc(C(F)F)c3F)c2cc1N1CCN(C(C)C)CC1` [Compound 360, (R)-N-(1-(3-(difluoromethyl)-2-fluorophenyl)ethyl)-6-(4-isopropylpiperazin-1-yl)-7-(2-methoxyethoxy)-2-methylpyrido [2,3-d]pyrimidin-4-amine], the IC50 in test [1] (setting [3]) was at most 1000 nM; in test [1] (setting [4]) it was under 500 nM; in test [2] (setting [5]), at most 1000 nM; in test [2] (setting [6]), under 500 nM; on SOS1 (setting [7]), under 100 nM; on SOS1 (setting [8]) it was under 50 nM.
Consider `Cc1c([C@@H](C)Nc2ncnc3nc(Cl)c(C4(C#N)CC4)cc23)cccc1C(F)(F)F` [Compound 364, (R)-1-(7-chloro-4-((1-(2-methyl-3-(trifluoromethyl)phenyl)ethyl)amino)pyrido[2,3-d]pyrimidin-6-yl) cyclopropane-1-carbonitrile], for which the IC50 in test [1] (setting [3]) is at most 1000 nM; in test [1] (setting [4]), under 500 nM; in test [2] (setting [5]), 1000 to 10000 nM; at SOS1 (setting [7]), 100 to 1000 nM.
As for `Cc1nc(N[C@H](C)c2cccc(C(F)F)c2F)c2cc(N3CCN(C(C)C)CC3)c(OC3CNC3)nc2n1` [Compound 367, (R)-7-(azetidin-3-yloxy)-N-(1-(3-(difluoromethyl)-2-fluorophenyl)ethyl)-6-(4-isopropylpiperazin-1-yl)-2-methylpyrido[2,3-d]pyrimidin-4-amine], the IC50 was at most 1000 nM in test [1] (setting [3]); under 500 nM in test [1] (setting [4]); 1000 to 10000 nM in test [2] (setting [5]); under 100 nM at SOS1 (setting [7]); under 50 nM on SOS1 (setting [8]).
The like results for `COCCOc1nc2nc(C)nc(N[C@H](C)c3cccc(C(F)F)c3F)c2cc1C1CCS(=N)(=O)CC1` (stereo partly drawn) [Compound 368, (R)-4-(4-((1-(3-(difluoromethyl)-2-fluorophenyl)ethyl)amino)-7-(2-methoxyethoxy)-2-methylpyrido[2,3-d]pyrimidin-6-yl)-1-iminohexahydro-1l6-thiopyran 1-oxide] were, in that order, at most 1000 nM, under 500 nM, 1000 to 10000 nM, under 100 nM and under 50 nM.
On to `Cc1nc(N[C@H](C)c2cccc(C(F)F)c2F)c2cc(C3CCN(C(C)C)CC3)c(OCCN(C)C)nc2n1` [Compound 369, (R)-N-(1-(3-(difluoromethyl)-2-fluorophenyl)ethyl)-7-(2-(dimethylamino)ethoxy)-6-(1-isopropylpiperidin-4-yl)-2-methylpyrido[2,3-d] pyrimidin-4-amine], for which the half-maximal inhibitory concentration (IC50) in test [1] (setting [3]) was at most 1000 nM; in test [2] (setting [5]), 1000 to 10000 nM; on SOS1 (setting [7]), under 100 nM; at SOS1 (setting [8]), under 50 nM.
On to `Cc1nc(N[C@H](C)c2cccc(C(F)F)c2F)c2cc(N3CCN(C(C)C)CC3)c(OC3CN(C)C3)nc2n1` [Compound 370, (R)-N-(1-(3-(difluoromethyl)-2-fluorophenyl)ethyl)-6-(4-isopropylpiperazin-1-yl)-2-methyl-7-((1-methylazetidin-3-yl)oxy)pyrido[2,3-d]pyrimidin-4-amine], for which the IC50 in test [1] (setting [3]) was at most 1000 nM; in test [2] (setting [5]), at most 1000 nM; on SOS1 (setting [7]) it was under 100 nM; at SOS1 (setting [8]), under 50 nM.
As for `CCN1CCN(c2cc3c(N[C@H](C)c4cccc(C(F)F)c4F)ncnc3nc2OC)CC1` [Compound 372, (R)-N-(1-(3-(difluoromethyl)-2-fluorophenyl)ethyl)-6-(4-ethylpiperazin-1-yl)-7-methoxypyrido[2,3-d]pyrimidin-4-amine], the IC50 is at most 1000 nM in test [1] (setting [3]); under 500 nM in test [1] (setting [4]); at most 1000 nM in test [2] (setting [5]); under 500 nM in test [2] (setting [6]); under 100 nM on SOS1 (setting [7]).
Turning to `COc1nc2nc(C)nc(N[C@H](C)c3cccc(C(F)(F)C4CCN(C(C)C)CC4)c3F)c2cc1C1CCS(=O)(=O)CC1` [Compound 379, (R)-4-(4-((1-(3-(difluoro(1-isopropylpiperidin-4-yl)methyl)-2-fluorophenyl)ethyl)amino)-7-methoxy-2-methylpyrido[2,3-d]pyrimidin-6-yl)tetrahydro-2H-thiopyran 1,1-dioxide], the IC50 is at most 1000 nM in test [1] (setting [3]); under 500 nM in test [1] (setting [4]); at most 1000 nM in test [2] (setting [5]); under 500 nM in test [2] (setting [6]); under 100 nM at SOS1 (setting [7]); under 50 nM on SOS1 (setting [8]).
In the case of `COc1nc2ncnc(N[C@H](C)c3cccc(C(F)(F)F)c3C)c2cc1N1CCS(=O)(=O)CC1` [Compound 381, (R)-4-(7-methoxy-4-((1-(2-methyl-3-(trifluoromethyl)phenyl)ethyl)amino)pyrido[2,3-d]pyrimidin-6-yl) thiomorpholine 1,1-dioxide], the IC50 is at most 1000 nM in test [1] (setting [3]); under 500 nM in test [1] (setting [4]); at most 1000 nM in test [2] (setting [5]); under 500 nM in test [2] (setting [6]); under 100 nM on SOS1 (setting [7]); under 50 nM on SOS1 (setting [8]).
Turning to `CCN1CCN(c2cc3c(N[C@H](C)c4cccc(C(F)(F)F)c4F)nc(C)nc3nc2OC)CC1` [Compound 383, (R)-6-(4-ethylpiperazin-1-yl)-N-(1-(2-fluoro-3-(trifluoromethyl)phenyl)ethyl)-7-methoxy-2-methylpyrido[2,3-d]pyrimidin-4-amine], the IC50 in test [1] (setting [3]) was at most 1000 nM; in test [1] (setting [4]), under 500 nM; in test [2] (setting [5]) it was at most 1000 nM; in test [2] (setting [6]) it was under 500 nM; on SOS1 (setting [7]), under 100 nM; on SOS1 (setting [8]), under 50 nM.
For the molecule `CC(C)N1CCC(c2cc3c(N[C@H](C)c4cccc(C(F)(F)F)c4F)ncnc3nc2Cl)CC1` [Compound 384, (R)-7-chloro-N-(1-(2-fluoro-3-(trifluoromethyl)phenyl)ethyl)-6-(1-isopropylpiperidin-4-yl)pyrido[2,3-d] pyrimidin-4-amine], the IC50 in test [1] (setting [3]) was at most 1000 nM; in test [1] (setting [4]) it was under 500 nM; in test [2] (setting [5]), at most 1000 nM; in test [2] (setting [6]), under 500 nM; at SOS1 (setting [7]) it was under 100 nM; at SOS1 (setting [8]), under 50 nM.
In the case of `Cc1c([C@@H](C)Nc2ncnc3nc(Cl)c(C4CCN(C(C)C)CC4)cc23)cccc1C(F)(F)F` [Compound 385, (R)-7-chloro-6-(1-isopropylpiperidin-4-yl)-N-(1-(2-methyl-3-(trifluoromethyl)phenyl)ethyl)pyrido [2,3-d]pyrimidin-4-amine], the half-inhibitory concentration (IC50) is at most 1000 nM in test [1] (setting [3]); under 500 nM in test [1] (setting [4]); at most 1000 nM in test [2] (setting [5]); under 500 nM in test [2] (setting [6]); under 100 nM at SOS1 (setting [7]); under 50 nM on SOS1 (setting [8]).

The record behind these values is patent publication US11648254B2 (Kumquat Biosciences Inc., priority 2021, dated 2023).
